The test system of data set [1] is telomerase activity in HEKneoP cells (neonatal keratinocytes). As to the kind of experiment: TRAP assay of telomerase activity in neonatal keratinocytes. The class given is cell-based, human. As to conditions: for MEC (minimum effective concentration producing telomerase activity twice that of DMSO control): HEKneoP cells, 100% greater than DMSO control; for telomerase activity (result in words): neonatal keratinocytes / normal cells.

The format of data set [2] is in vitro ADME. As to conditions: human. Here is the method: J. Franz et al., Abst. J Invest Dermatol 94:525, 1990). […] The receptor solution concentration (representing the inner surface of the skin) was then collected at predetermined intervals over 48 hours, to determine extent and rate of appearance of labeled compound.
Data set [3] concerns young neonatal keratinocytes. Briefly: scratch assay (cell reconfluence), young neonatal keratinocytes. The class given is cell-based, human. As to conditions: FIG. 5, 2 at 0.01 μM; for SCtest (percentage of closure): SC=100-[100×Wn/W0]. As for the experimental part: (§1) As used herein, “as measured in a scratch assay” refers to measurement of cell reconfluence in keratinocytes or fibroblasts according to the following protocol, and expressed as the value of SC shown in the formula below. Cells are plated in flasks ((5×10^5 cells per flask) and cultured for two days in a humidified chamber at 5% CO2, 37° C. A 2 ml plastic pipette is gently dragged thought the culture to “scratch” the cell surface. The ideal scratch is approximately 2-3 mm wide and 50 mm long (along the long axis of the tissue culture flask). The cells are retreated with medium containing either vehicle (control sample) or test compositions at multiple dilutions. A scratch area is identified, the flask marked, and the appearance of the cells documented photographically over 3-4 days continued culturing of the cells. Amount of cell reconfluence, or closure of the scratch, is determined by measuring width of the scratch over time for compound-treated samples relative to vehicle-treated or other control cells. […] Percentage of closure is calculated by the following formula: SC=100−[100×Wn/W0], where Wn is the width of the scratch on day n and W0 is the width of the scratch on day one (i.e. immediately after scratching).

For data set [4], the system named is aging neonatal keratinocytes. Briefly: scratch assay (cell reconfluence), aging neonatal keratinocytes. The class given is cell-based, human. To be noted: FIG. 7; compared with 50 ng/mL PDGF. Here is the method: as §1
Data set [5] relates to aging adult keratinocytes. Briefly: scratch assay (cell reconfluence), aging adult keratinocytes. The data set is classed as cell-based, human. As to conditions: for Approx. scratch width (arbitrary units) Day 1 test: 0.1 μg/ml (about 0.13 μM) 1. Here is the method:
As used herein, “as measured in a scratch assay” refers to measurement of cell reconfluence in keratinocytes or fibroblasts according to the following protocol, and expressed as the value of SC shown in the formula below. Cells are plated in flasks ((5×10^5 cells per flask) and cultured for two days in a humidified chamber at 5% CO2, 37° C. A 2 ml plastic pipette is gently dragged thought the culture to “scratch” the cell surface. The ideal scratch is approximately 2-3 mm wide and 50 mm long (along the long axis of the tissue culture flask). The cells are retreated with medium containing either vehicle (control sample) or test compositions at multiple dilutions. A scratch area is identified, the flask marked, and the appearance of the cells documented photographically over 3-4 days continued culturing of the cells. Amount of cell reconfluence, or closure of the scratch, is determined by measuring width of the scratch over time for compound-treated samples relative to vehicle-treated or other control cells. […] Percentage of closure is calculated by the following formula: SC=100−[100×Wn/W0], where Wn is the width of the scratch on day n and W0 is the width of the scratch on day one (i.e. immediately after scratching). […] Briefly, a scratch, typically about 2-3 mm in width, is created through a mass of plated cells, and the time needed for the cells to become confluent is observed. […] (GRN163 is a telomerase inhibitor oligonucleotide that targets the template region of the telomerase RNA component. Specifically, GRN163 is a 13-mer N3′→P5′ thiophosphoramidate oligonucleotide, described in detail in PCT Pubn. No. WO 01/18015. GRN137227 is a 13-mer N3′→P5′ thiophosphoramidate control oligonucleotide having a mismatched sequence.)

Like-named read-outs stand apart in the source and are kept apart here.

Turning to “EGF: EGF (epidermal growth factor), used at 10 nM as comparison in the TRAP assay [reference compound]”, the telomerase activity entry in data set [1] (cells treated with 10 nM EGF) was “about 200%”.
As to `CC(C)(O)[C@@H]1CC[C@](C)([C@H]2[C@@H](O)C[C@@]3(C)[C@@H]4CC=C5C(=CC[C@H](O)C5(C)C)[C@]4(C)CC[C@]23C)O1` [Compound 5, 20R,24S-epoxy-3β,16β,25-trihydroxy-9β-methyl-19-norlanost-1,5-diene], in data set [1], the “MEC (minimum effective concentration producing telomerase activity twice that of DMSO control)” value (from here on “MEC”) worked out at 0.10 µM.
In the case of `CC(C)(O)[C@@H]1CC[C@](C)([C@H]2[C@@H](O)C[C@@]3(C)[C@@H]4C[C@H](O)[C@H]5C(C)(C)[C@@H](O)CC[C@@]56C[C@@]46CC[C@]23C)O1` [Compound 2, cycloastragenol], the “MEC” value in data set [1] came to 0.01 µM. In addition, the telomerase activity result in data set [1] (at 0.1 μM, maximum of the concentration series) is “about 300 % of control”. Also, in data set [1], the “telomerase activity (result in words)” value is on record as “increase of telomerase activity”. The “total delivery over 48 hours” value in data set [2] (0.01 wt %) was approximately 66 ng; in data set [2] (0.25 wt %) it was approximately 600 ng. In data set [3], the “SCtest (percentage of closure)” value amounted to 90.5%. Besides, the figures for the “Approx. scratch width (arbitrary units) Day 1 test” value in data set [3] (first 'Day 1 test' column) and in data set [3] (second 'Day 1 test' column) were 21 arbitrary units and 2 arbitrary units, respectively.
`CC(C)(O)[C@@H]1CC[C@](C)([C@H]2[C@@H](O)C[C@@]3(C)[C@@H]4C[C@H](OC5O[C@H](CO)[C@@H](O)[C@H](O)[C@H]5O)[C@H]5C(C)(C)[C@@H](O)CC[C@@]56C[C@@]46CC[C@]23C)O1` (stereo partly drawn) [Compound 6, cycloastragenol 6-β-D-glucopyranoside]: the “MEC” value in data set [1] turned out to be 3.2 µM.
As for astragaloside IV 16-one [Compound 4], the “MEC” value in data set [1] was 0.03 µM.
`CC(C)(O)[C@@H]1CC[C@](C)([C@H]2[C@@H](O)C[C@@]3(C)[C@@H]4C[C@H](O[C@@H]5O[C@H](CO)[C@@H](O)[C@H](O)[C@H]5O)[C@H]5C(C)(C)[C@@H](O[C@@H]6OC[C@@H](O)[C@H](O)[C@H]6O)CC[C@@]56C[C@@]46CC[C@]23C)O1` [Compound 1, astragaloside IV]: the “promotion of cell reconfluence” value in data set [4] was “comparable to that of PDGF”. For the same compound, in data set [1], the “MEC” value came to 0.01 µM. Moreover, the telomerase activity entry in data set [1] (at 1.0 μM, maximum of the concentration series) is “about 360 % of control”. The “telomerase activity (result in words)” value in data set [1] is given as “increase in telomerase activity”. In addition, the “SCtest (percentage of closure)” value in data set [5] (FIG. 4, 0.1 μg/ml 1, SC=100-[100×Wn/W0]) was found to be 100%; in data set [3], 100%. The “Approx. scratch width (arbitrary units) Day 1 test” value is 17 arbitrary units in data set [5] (FIG. 4, first 'Day 1 test' column); 0 arbitrary units in data set [5] (FIG. 4, second 'Day 1 test' column); 18 arbitrary units in data set [3] (first 'Day 1 test' column); 0 arbitrary units in data set [3] (second 'Day 1 test' column). In addition, in data set [5] (FIG. 4, 0.1 μg/ml (about 0.13 μM), versus control cells at day 4), the “confluence of treated cells” value is “confluent at day 4”. In data set [5] (FIG. 6, 1 alone), the “cell proliferation” value is “promotion of cell proliferation”.
Consider `CC(C)(O)[C@@H]1CC[C@](C)([C@H]2[C@@H](O)C[C@@]3(C)[C@@H]4C[C@H](O)[C@H]5C(C)(C)[C@@H](O)CC[C@]5(C)C4=CC[C@]23C)O1` [Compound 3, astragenol], for which the “MEC” value in data set [1] came out at 0.03 µM.
On to `CC(C)(O)[C@@H]1CC[C@](C)([C@H]2[C@@H](O)C[C@@]3(C)[C@@H]4C[C@H](O)[C@H]5C(C)(C)[C@@H](OC6OC[C@@H](O)[C@H](O)[C@H]6O)CC[C@@]56C[C@@]46CC[C@]23C)O1` (stereo partly drawn) [Compound 7, cycloastragenol 3-β-D-xylopyranoside], for which the “MEC” value in data set [1] turned out to be 3.2 µM.
As for `CC(C)=CCC[C@](C)(O)[C@H]1CC[C@]2(C)[C@@H]1[C@H](O)C[C@@H]1[C@@]3(C)CC[C@H](O)C(C)(C)[C@@H]3[C@@H](O[C@@H]3O[C@H](CO)[C@@H](O)[C@H](O)[C@H]3O)C[C@]12C` [Compound 8, ginsenoside RH1], the “MEC” value in data set [1] turned out to be 10 µM.

The values are drawn from patent publication US9248088B2, “Compositions and methods for skin conditioning” (TELOMERASE ACTIVATION SCIENCES, INC., priority 2003, dated 2016).
